Results published in US12686687B2, “Compounds and uses thereof” (Foghorn Therapeutics Inc., priority 2019, dated 2026).
Where two headings read alike, the source gives them in different places.

Target: T1, Nanoluciferase-BRD9 fusion protein (3×FLAG-NLuc-BRD9) in SYO-1 cells (Homo sapiens, UniProt Q9H8M2)
T1 construct: expressed in transfected cells; host or cells: SYO-1
T1 sequence (Q9H8M2 1-597): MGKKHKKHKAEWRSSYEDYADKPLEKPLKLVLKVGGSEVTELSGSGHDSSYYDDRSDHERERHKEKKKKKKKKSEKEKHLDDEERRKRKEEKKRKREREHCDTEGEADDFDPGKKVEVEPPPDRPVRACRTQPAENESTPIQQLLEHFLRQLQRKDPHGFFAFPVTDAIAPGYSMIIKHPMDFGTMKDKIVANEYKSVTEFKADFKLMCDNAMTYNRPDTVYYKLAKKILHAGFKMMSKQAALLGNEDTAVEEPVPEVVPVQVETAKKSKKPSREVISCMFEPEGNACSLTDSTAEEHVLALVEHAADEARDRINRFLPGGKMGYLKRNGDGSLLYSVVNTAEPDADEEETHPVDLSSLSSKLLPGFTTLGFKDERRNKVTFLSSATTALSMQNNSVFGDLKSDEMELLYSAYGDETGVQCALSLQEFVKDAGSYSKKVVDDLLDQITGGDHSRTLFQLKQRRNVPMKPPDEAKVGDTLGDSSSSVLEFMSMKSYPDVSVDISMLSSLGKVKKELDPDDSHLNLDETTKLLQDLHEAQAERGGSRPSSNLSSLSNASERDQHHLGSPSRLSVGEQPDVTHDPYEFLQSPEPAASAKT
Assay: SYO1 BRD9 NanoLuc degradation assay
Type: cell-based
Conditions: SYO-1 cells expressing 3×FLAG-NLuc-BRD9, 6 hours incubation, 1 μM top dose, read-out: SYO1 BRD9-NanoLuc degradation IC50
In short: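 Stable SYO-1 line expressing 3×FLAG-NLuc-BRD9 was seeded at 8000 cells/well, then treated next day for 6 h with 10-point 3-fold dilutions (top 1 μM final). Nano-Glo luminescence was read. % inhibition was normalised to DMSO (high control) and 1 μM reference BRD9 degrader (low control).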

Row | DC50 (Table 6C) [nM] | DC50 (Table 6B) [nM] | Compound
1 | < 10 | – | COc1cc(-c2cn(C)c(=O)c3sncc23)cc(OC)c1CN1CCC2(CC1)CN(c1ccc3c(c1)C(=O)N(C1CCC(=O)NC1=O)C3)C2 (stereo not shown) [Compound D203]
2 | < 10 | – | COc1cc(-c2cn(C)c(=O)c3cc(C(=O)NC4CCN(c5ccc6c(c5)CN(C5CCC(=O)NC5=O)C6=O)CC4(F)F)sc23)cc(OC)c1CN(C)C (stereo not shown) [Compound D164]
3 | – | < 10 | COc1cc(-c2cn(C)c(=O)c3cc(C(=O)NC4CC5(CCN(CCN6CCN(c7ccc8c(c7)C(=O)N([C@@H]7CCC(=O)NC7=O)C8=O)CC6)C5)C4)sc23)cc(OC)c1CN(C)C (stereo partly shown) [Compound D65]
4 | – | > 10 | COc1cc(-c2cn(C)c(=O)c3cc(C(=O)NC4CCN(C)CC4(F)F)sc23)cc(OC)c1CN(C)CC(=O)NCCOCCOc1cccc2c1C(=O)N(C1CCC(=O)NC1=O)C2=O (stereo not shown) [Compound D30]
5 | > 1000 | – | COc1cc(-c2cn(C)c(=O)c3ccsc23)cc(OC)c1CN1CCN(C(=O)c2csc(C(=O)c3c[nH]c4ccccc34)n2)CC1 [DD2]
6 | – | < 10 | COc1cc(-c2cn(C)c(=O)c3cc(C(=O)NCC4CC5(CCN(CCCN6CCN(c7ccc8c(c7)C(=O)N(C7CCC(=O)NC7=O)C8=O)CC6)CC5)C4)sc23)cc(OC)c1CN(C)C (stereo not shown) [Compound D33]
7 | < 10 | – | COc1cc(-c2cn(C)c(=O)c3cc(C(=O)NC4CCN(c5ccc6c(c5)C(=O)N(C5CCC(=O)NC5=O)C6=O)CC4(F)F)sc23)cc(OC)c1CN(C)C (stereo not shown) [Compound D192]
8 | < 10 | – | COc1cc(-c2cn(C)c(=O)c3ccsc23)cc(OC)c1CN1CC(Oc2ccc3c(c2)CN(C2CCC(=O)NC2=O)C3=O)C1 (stereo not shown) [Compound D170]
9 | – | > 10 | COc1cc(-c2cn(C)c(=O)c3cc(C(=O)NCC4CC45CCN(CCCN4CCN(c6ccc7c(c6)C(=O)N(C6CCC(=O)NC6=O)C7=O)CC4)CC5)sc23)cc(OC)c1CN(C)C (stereo not shown) [Compound D56]
10 | < 10 | – | COc1cc(-c2cn(C)c(=O)c3ccsc23)cc(OC)c1C1CCN(c2ccc3c(c2)C(=O)N(C2CCC(=O)NC2=O)C3)CC1 (stereo not shown) [Compound D123]
11 | > 10 | – | COc1cc(-c2cn(C)c(=O)c3cc(C(=O)NC4CCN(c5ccc6c(c5)C(=O)N(C5CCC(=O)NC5=O)C6)CC4(F)F)oc23)cc(OC)c1CN(C)C (stereo not shown) [Compound D218]
12 | < 10 | – | COc1cc(OC)cc(-c2cn(C)c(=O)c3cc(C(=O)NC4CCN(C5CCN(c6ccc7c(c6)C(=O)N(C6CCC(=O)NC6=O)C7)CC5)CC4(F)F)sc23)c1 (stereo not shown) [Compound D98]
13 | > 1000 | – | COc1cc(-c2cn(C)c(=O)c3cc(C(=O)NC4CCN(C5CCN(c6ccc7c(c6)C(=O)N(C6CCC(=O)N(C)C6=O)C7)CC5)CC4(F)F)sc23)cc(OC)c1CN(C)C (stereo not shown) [Compound D142]
14 | < 10 | – | COc1cc(-c2cn(C)c(=O)c3cc(C(=O)NC4CCN(C5CCN(c6ccc7c(c6)CN(C6CCC(=O)NC6=O)C7=O)CC5(F)F)CC4)sc23)cc(OC)c1CN(C)C (stereo not shown) [Compound D127]
15 | – | < 10 | COc1cc(-c2cn(C)c(=O)c3cc(C(=O)NC4CCN(C(C)=O)CC4)sc23)cc(OC)c1CN1CCC(CCN2CCN(c3ccc4c(c3)C(=O)N(C3CCC(=O)NC3=O)C4=O)CC2)CC1 (stereo not shown) [Compound D27]
16 | > 1000 | – | COc1cc(-c2cn(C)c(=O)c3c(C)c(C(=O)NC4CCN(C5CCN(c6ccc7c(c6)C(=O)N(C6CCC(=O)NC6=O)C7)CC5)CC4(F)F)sc23)cc(OC)c1CN(C)C (stereo not shown) [Compound D148]
17 | – | > 100 | COc1cc(-c2cn(C)c(=O)c3cc(C(=O)NC4CCC45CCN(C(=O)CCN4CCN(c6ccc7c(c6)C(=O)N(C6CCC(=O)NC6=O)C7=O)CC4)CC5)sc23)cc(OC)c1CN(C)C (stereo not shown) [Compound D54]
18 | < 10 | – | COc1cc(-c2cn(C)c(=O)c3cc(C(=O)NC4CCN(CCN5CCN(c6ccc7c(c6)C(=O)N(C6CCC(=O)NC6=O)C7)CC5)CC4)sc23)cc(OC)c1CN(C)C (stereo not shown) [Compound D130]
19 | < 10 | – | COc1cc(-c2cn(C)c(=O)c3ccsc23)cc(OC)c1CN1CCC2CCN(c3ccc4c(c3)C(=O)N(C3CCC(=O)NC3=O)C4)CC2C1 (stereo not shown) [Compound D113]
20 | < 10 | – | COc1cc(-c2cn(C)c(=O)c3cc(C)sc23)cc(OC)c1CN1CCC(CN2CCC3(CC2)CC(Oc2ccc4c(c2)C(=O)N(C2CCC(=O)NC2=O)C4=O)C3)CC1 (stereo not shown) [Compound D173]
21 | < 10 | – | COc1cc(-c2cn(C)c(=O)c3c(C)csc23)cc(OC)c1CN1CCC(CN2CCC3(CC2)CN(c2ccc4c(c2)C(=O)N(C2CCC(=O)NC2=O)C4=O)C3)CC1 (stereo not shown) [Compound D161]
22 | < 10 | – | COc1cc(-c2cn(C)c(=O)c3ccsc23)cc(OC)c1C1CCN(c2ccc3c(c2)C(=O)N(C2CCC(=O)NC2=O)C3)C1 (stereo not shown) [Compound D122]

Row | DC50 (Table 6C) [nM] | DC50 (Table 6B) [nM] | Compound
23 | – | < 10 | COc1cc(-c2cn(C)c(=O)c3cc(C(=O)NC4CCCN(CCCCCOc5ccc6c(c5)C(=O)N(C5CCC(=O)NC5=O)C6=O)CC4)sc23)cc(OC)c1CN(C)C (stereo not shown) [Compound D87]
24 | – | > 100 | COc1cc(-c2cn(C)c(=O)c3cc(C(=O)NC4C[C@@H]5CN(CCN6CCN(c7ccc8c(c7)C(=O)N(C7CCC(=O)NC7=O)C8=O)CC6)C[C@H]45)sc23)cc(OC)c1CN(C)C (stereo partly shown) [Compound D64]
25 | < 10 | – | COc1cc(-c2cn(C)c(=O)c3cc(C(=O)NC4CCN(C5CCN(c6ccc7c(c6)C(=O)N(C6CCC(=O)NC6=O)C7)CC5(F)F)CC4)sc23)cc(OC)c1CN(C)C (stereo not shown) [Compound D126]
26 | < 10 | – | COc1cc(-c2cn(C)c(=O)c3cc(C(=O)N[C@H]4CCN(C5CCN(c6ccc7c(c6)C(=O)N([C@H]6CCC(=O)NC6=O)C7)CC5)CC4(F)F)sc23)cc(OC)c1CN(C)C [Compound D141]
27 | > 100 | – | COc1cc(-c2cn(C)c(=O)c3ncsc23)cc(OC)c1CN1CCC2(CC1)CN(c1ccc3c(c1)C(=O)N(C1CCC(=O)NC1=O)C3)C2 (stereo not shown) [Compound D204]
28 | > 1000 | – | COc1cc(-c2cn(C)c(=O)c3cc(C(=O)NC4CCN(c5ccc6c(c5)C(=O)N(C5CCC(=O)N(C)C5=O)C6)CC4(F)F)sc23)cc(OC)c1CN(C)C (stereo not shown) [Compound D143]
29 | < 10 | – | Cn1cc(-c2ccc(-c3ccc4c(c3)C(=O)N(C3CCC(=O)NC3=O)C4)c(C(F)(F)F)c2)c2sccc2c1=O (stereo not shown) [Compound D125]
30 | > 1000 | – | COc1cc(-c2c(C)n(C)c(=O)c3cc(C(=O)NC4CCN(C)CC4(F)F)sc23)cc(OC)c1CN1CC(CN2CCC3(CC2)CN(c2ccc4c(c2)C(=O)N(C2CCC(=O)NC2=O)C4)C3)C1 (stereo not shown) [Compound D172]
31 | – | < 10 | COc1cc(-c2cn(C)c(=O)c3cc(C(=O)NC4CCN(CCN5CCN(c6ccc7c(c6)CN(C6CCC(=O)NC6=O)C7=O)CC5)CC4(F)F)sc23)cc(Cl)c1CN(C)C (stereo not shown) [Compound D17]
32 | < 10 | – | COc1cc(-c2cn(C)c(=O)c3cc(C(=O)NC4CCN(CCN5CCC6(CC5)CN(c5ccc7c(c5)C(=O)N(C5CCC(=O)NC5=O)C7)C6)CC4(F)F)sc23)cc(OC)c1CN(C)C (stereo not shown) [Compound D175]
33 | < 10 | – | COc1cc(-c2cn(C)c(=O)c3ncsc23)cc(OC)c1CN1CC(Oc2ccc3c(c2)CN(C2CCC(=O)NC2=O)C3=O)C1 (stereo not shown) [Compound D206]
34 | < 10 | – | COc1cc(-c2cn(C)c(=O)c3cc(C(=O)NC4CCN(c5ccc(OC6CCC(=O)NC6=O)cc5)CC4)sc23)cc(OC)c1CN(C)C (stereo not shown) [Compound D105]
35 | < 10 | – | COc1cc(-c2cn(C)c(=O)c3scnc23)cc(OC)c1CN1CCC2(CC1)CN(c1ccc3c(c1)C(=O)N(C1CCC(=O)NC1=O)C3)C2 (stereo not shown) [Compound D215]
36 | < 10 | – | COc1cc(-c2cn(C)c(=O)c3cc(C(=O)NC4CCN(C)CC4(F)F)sc23)cc(OC)c1CN1CC(CN2CCC3(CC2)CN(c2ccc4c(c2)CN(C2CCC(=O)NC2=O)C4=O)C3)C1 (stereo not shown) [Compound D104]
37 | < 10 | – | COc1cc(-c2cn(C)c(=O)c3cc(C(=O)N[C@@H]4CCN(c5ccc6c(c5)CN(C5CCC(=O)NC5=O)C6=O)CC4(F)F)sc23)cc(OC)c1CN(C)C (stereo partly shown) [Compound D155]
38 | – | < 10 | COc1cc(-c2cn(C)c(=O)c3cc(C(=O)NC4CCN(CCCCN5CCN(c6ccc7c(c6)C(=O)N(C6CCC(=O)NC6=O)C7=O)CC5)CC4)sc23)cc(OC)c1CN(C)C (stereo not shown) [Compound D86]
39 | < 10 | – | COc1cc(-c2cn(C)c(=O)c3cc(C(=O)NC4CCN(C5CCN(c6ccc7c(c6)C(=O)N(C6CCC(=O)NC6=O)C7)CC5)CC4)sc23)cc(OC)c1CN(C)C (stereo not shown) [Compound D150]
40 | – | < 10 | COc1cc(-c2cn(C)c(=O)c3cc(C(=O)NCC4CC5(CCN(CCN6CCN(c7ccc8c(c7)C(=O)N(C7CCC(=O)NC7=O)C8=O)CC6)CC5)CO4)sc23)cc(OC)c1CN(C)C (stereo not shown) [Compound D50]
41 | < 10 | – | COc1cc(-c2cn(C)c(=O)c3ccsc23)cc(OC)c1CN1[C@H](C)CN(c2ccc3c(c2)CN(C2CCC(=O)NC2=O)C3=O)C[C@H]1C (stereo partly shown) [Compound D136]
42 | – | > 10 | COc1cc(-c2cn(C)c(=O)c3cc(C(=O)NCC4CC5(C4)CN(C(=O)CCN4CCN(c6ccc7c(c6)C(=O)N(C6CCC(=O)NC6=O)C7=O)CC4)C5)sc23)cc(OC)c1CN(C)C (stereo not shown) [Compound D51]
43 | – | > 10 | COc1cc(-c2cn(C)c(=O)c3cc(C(=O)NCC4CC5(C4)CN(CCCN4CCN(c6ccc7c(c6)C(=O)N(C6CCC(=O)NC6=O)C7=O)CC4)C5)sc23)cc(OC)c1CN(C)C (stereo not shown) [Compound D52]
